The values below come from PubChem BioAssay (NCI).

Where “and” joins values, the source holds several entries; their conditions need not be identical. Identical values can stand only once.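 Method: 48-hour compound exposure of cells in 96-well plates, five concentrations, linear interpolation of endpoints. At the GI50, growth is halved. TGI marks complete inhibition of growth.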

Test systems include MALME-3M melanoma; SK-OV-3 ovarian; OVCAR-4 ovarian; UACC-257 melanoma; TK-10 renal; A549 NSCLC; HT29 colon; NCI/ADR-RES ovarian; UACC-62 melanoma; K-562 leukemia.
Experiment in all cases: NCI-60 cell line screen, 48 h

Consider `Cn1c2c(c3ccccc31)CCN1C[C@@H]3CCCC[C@H]3C[C@@H]21`, for which the GI50 in the assay with MALME-3M melanoma is 4220 nM; with SK-OV-3 ovarian it was 2820 nM; in the assay with OVCAR-4 ovarian, 4360 nM; in the assay with UACC-257 melanoma it was 8140 nM; with TK-10 renal it was 3010 nM; with A549 NSCLC, 3100 nM. The GI50 was 2610 nM in the assay with HT29 colon, 928 nM with NCI/ADR-RES ovarian, 4190 nM in the assay on UACC-62 melanoma and 2070 nM in the assay with K-562 leukemia. The TGI with MALME-3M melanoma is greater than 55800 nM; with SK-OV-3 ovarian, 25600 nM; with OVCAR-4 ovarian, greater than 100000 nM; in the assay with UACC-257 melanoma it was greater than 100000 nM; in the assay on TK-10 renal, 23200 nM; in the assay with A549 NSCLC, greater than 100000 nM. Besides, the TGI is 8060 nM in the assay on HT29 colon, 9700 nM with NCI/ADR-RES ovarian, greater than 100000 nM in the assay with UACC-62 melanoma and greater than 36000 nM in the assay with K-562 leukemia.
Consider `CC[C@]12C=CCN3CC[C@]4(C(=C(C(=O)OC)C1)Nc1cc5c(cc14)[C@@H]1[C@H](O5)[C@@H](O)[C@@]4(CC)CC(C(=O)OC)=C5Nc6ccccc6[C@@]56CCN1[C@@H]46)[C@@H]32`, for which the GI50 with MALME-3M melanoma was 412 nM and 431 nM; in the assay with SK-OV-3 ovarian, 1090 nM; in the assay on OVCAR-4 ovarian it was 365 nM and 397 nM; in the assay on UACC-257 melanoma, 582 nM and 672 nM; in the assay on TK-10 renal it was 185 nM and 402 nM; with A549 NSCLC, 1200 nM and 875 nM. In addition, the GI50 in the assay on HT29 colon is 130 nM and 186 nM; with NCI/ADR-RES ovarian, 825 nM and 714 nM; in the assay on UACC-62 melanoma, 137 nM and 158 nM; in the assay on K-562 leukemia, 129 nM and 276 nM. In addition, the TGI was 3450 nM and 15200 nM with MALME-3M melanoma; 25000 nM in the assay on SK-OV-3 ovarian; 13000 nM and > 100000 nM in the assay on OVCAR-4 ovarian; 25000 nM and 42800 nM in the assay with UACC-257 melanoma; 12700 nM and > 100000 nM in the assay on A549 NSCLC; 25000 nM and > 100000 nM in the assay with NCI/ADR-RES ovarian.
